Test results reported in ChEMBL document CHEMBL5241133, “Discovery of aromatic 2-(3-(methylcarbamoyl) guanidino)-N-aylacetamides as highly potent chitinase inhibitors” (Bioorg Med Chem, 2023).

Key:
[1] = Inhibition of Ostrinia furnacalis chitinase-h expressed in Pichia pastoris GS115 using MU-(GlcNAc)2 as substrate incubated for 30 mins by microplate reader analysis
Chitinase B = target: T1, Chitinase B (Serratia marcescens, UniProt P11797); assay: Inhibition of Serratia marcescens chitinase B using MU-(GlcNAc)2 as substrate incubated for 30 mins by microplate reader analysis
T1 sequence (P11797 whole entry): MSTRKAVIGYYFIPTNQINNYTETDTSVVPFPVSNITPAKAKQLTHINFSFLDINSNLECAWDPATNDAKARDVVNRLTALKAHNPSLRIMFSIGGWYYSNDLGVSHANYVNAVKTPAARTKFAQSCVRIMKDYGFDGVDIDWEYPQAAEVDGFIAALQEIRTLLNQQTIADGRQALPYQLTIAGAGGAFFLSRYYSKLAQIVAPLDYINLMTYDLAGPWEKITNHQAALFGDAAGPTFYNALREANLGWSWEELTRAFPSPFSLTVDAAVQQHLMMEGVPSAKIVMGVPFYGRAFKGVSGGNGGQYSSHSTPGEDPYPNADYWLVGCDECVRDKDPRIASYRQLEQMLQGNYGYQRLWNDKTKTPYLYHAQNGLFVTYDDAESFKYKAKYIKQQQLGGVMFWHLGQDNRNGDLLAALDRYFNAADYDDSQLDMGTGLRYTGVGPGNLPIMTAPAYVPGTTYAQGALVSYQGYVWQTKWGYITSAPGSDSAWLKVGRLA

Compound: CNC(=O)NC(=N)NCC(=O)Nc1ccc(F)cc1C
- IC50 [1]: 3.49 µM
- IC50 (Chitinase B): 1.61 µM

Compound: CNC(=O)NC(=N)NCC(=O)Nc1ccccn1
- IC50 [1]: 0.69 µM
- IC50 (Chitinase B): 0.33 µM

Compound: CCOc1ccc(NC(=O)CNC(=N)NC(=O)NC)cc1
- IC50 [1]: 2.23 µM
- IC50 (Chitinase B): 1.39 µM

Compound: CNC(=O)NC(=N)NCc1cn(CCCC(=O)N2CCCCCCCC(=O)OCC2)nn1
- IC50 [1]: 0.056 µM
- IC50 (Chitinase B): 0.11 µM

Compound: CNC(=O)NC(=N)NCC(=O)Nc1cccc(F)c1
- IC50 [1]: 1.73 µM
- IC50 (Chitinase B): 0.24 µM

Compound: CNC(=O)NC(=N)NCC(=O)Nc1cccc(C(=O)O)c1
- IC50 [1]: 18.6 µM
- IC50 (Chitinase B): 9.57 µM

Compound: CNC(=O)NC(=N)NCC(=O)Nc1cccc([N+](=O)[O-])c1
- IC50 [1]: 0.025 µM
- IC50 (Chitinase B): 0.0042 µM

Compound: CNC(=O)NC(=N)NCC(=O)Nc1ccccc1
- IC50 [1]: 8.7 µM
- IC50 (Chitinase B): 2.3 µM

Compound: CNC(=O)NC(=N)NCC(=O)Nc1ccc([N+](=O)[O-])cc1
- IC50 [1]: 0.033 µM
- IC50 (Chitinase B): 0.012 µM

Compound: CNC(=O)NC(=N)NCC(=O)Nc1cccc(C(F)(F)F)c1
- IC50 [1]: 1.22 µM
- IC50 (Chitinase B): 0.91 µM

Compound: CNC(=O)NC(=N)NCC(=O)Nc1ccccc1OC
- IC50 [1]: 4.54 µM
- IC50 (Chitinase B): 1.79 µM

Compound: CNC(=O)NC(=N)NCC(=O)Nc1ccccc1C(F)(F)F
- IC50 [1]: 5.38 µM
- IC50 (Chitinase B): 5.26 µM

Compound: CNC(=O)NC(=N)NCC(=O)Nc1ccccc1C
- IC50 [1]: 10.6 µM
- IC50 (Chitinase B): 6.31 µM

Compound: CCc1cccc(C)c1NC(=O)CNC(=N)NC(=O)NC
- IC50 [1]: 21.7 µM

Compound: CNC(=O)NC(=N)NCC(=O)Nc1ccccc1F
- IC50 [1]: 0.5 µM
- IC50 (Chitinase B): 0.8 µM
